According to patent US12171748B2, “Nitroimidazole formulations” (priority 2018, dated 2024):
Structures can show the parent of a compound that is named as a salt.

Tests used:
[1] = system: six strains of C. difficile; experiment: MIC/MBC of compounds against six strains of C. difficile; format: cell-based, Clostridium difficile; conditions: vs. the six strains
Experimental: Eleven natural compounds, metronidazole and a positive control, vancomycin, were tested against six strains of C. difficile as shown in Table 4. […] The eleven natural compounds, or combinations, tested were: • 1. […] Matrine • 6. […] Andrographolide • 8. […] The natural compounds, metronidazole and vancomycin were obtained from commercial sources, e.g. Sigma-Aldrich.

[2] = cited from earlier work; for solubility in hot/boiling ethanol: hot or boiling ethanol; for solubility in hot/boiling water: hot or boiling water
[3] = cited from earlier work
[4] = system: 6 strains of C. difficile; experiment: Checkerboard assay for antibiotic combinations; format: cell-based, Clostridium difficile; design: unit not given here
Experimental: The three combinations below were tested vs. 6 strains of C. difficile following the experimental protocols and synergy calculations set out in Magi et al. 2015. • Berberine+Metronidazole • Berberine+Vancomycin • Metronidazole+Vancomycin
In accordance with Magi et al. 2015, synergy is calculated using the equation below: ΣFIC=FICA+FICB=MICA (combine)/MICA (alone)+MICB (combine)/MICB (alone)
When ΣFIC≤0.5, synergy is observed.

[5] = system: ribotype 027 C. difficile strain (M7404); experiment: In vivo mouse trial; design: species or system C57BL6/J mice
Experimental: Groups of five, six week old, male, C57BL6/J mice were pre-treated with an antibiotic cocktail in the drinking water containing kanamycin (0.4 mg/ml), gentamicin (0.035 mg/ml), colistin (850 U/ml), metronidazole (0.215 mg/ml), vancomycin (0.045 mg/ml) and cefaclor (0.3 mg/ml) for 7 days, followed by three days of cefaclor alone. These antibiotics disrupt the resident microbiota and induce susceptibility to infection with Clostridium difficile. On the day of infection, antibiotic pre-treatment was ceased and mice were switched to plain drinking water prior to infection with a ribotype 027 C. difficile strain (M7404) at a dose of 10^5 spores/mouse by oral gavage. Eight hours post-infection, mice were orally administered 100 ul of the respective treatments, followed by the immediate addition of the treatment to the drinking water. The treatments were replenished fresh daily. The mice were monitored twice daily for signs of infection and faecal samples were analysed by microbiological techniques for the presence of C. difficile spores. Mice were humanely killed when they reached ethical endpoints, which include 10% acute weight loss (in the first 24 hours) or 15% chronic weight loss.

[6] = single agent 50 mg/kg, oral and drinking water, infected mice

With `CN[C@H](CC(C)C)C(=O)N[C@H]1C(=O)N[C@@H](CC(N)=O)C(=O)N[C@H]2C(=O)N[C@H]3C(=O)N[C@H](C(=O)N[C@H](C(=O)O)c4cc(O)cc(O)c4-c4cc3ccc4O)[C@H](O)c3ccc(c(Cl)c3)Oc3cc2cc(c3O[C@@H]2O[C@H](CO)[C@@H](O)[C@H](O)[C@H]2O[C@H]2C[C@](C)(N)[C@H](O)[C@H](C)O2)Oc2ccc(cc2Cl)[C@H]1O` [Vancomycin] the MBC range [1] was ≥ 1 µg/mL.
For `COC(=O)C1=CCCN(C)C1` [Arecoline], the solubility in ethanol [2] is listed as “produces a solution” and the solubility in water [2] is listed as “produces a solution”.
In the case of `C=C1CC[C@@H]2[C@](C)(CO)[C@H](O)CC[C@@]2(C)[C@@H]1C/C=C1/C(=O)OC[C@H]1O` [Andrographolide], the “solubility in ethanol at ambient temperature” value ([2]; ethanol at ambient temperature) is listed as “poorly soluble”, the “solubility in hot/boiling ethanol” value [2] is listed as “soluble” and the solubility in water [2] is listed as “almost insoluble”.
In the case of `COC(=O)C1=CCCN(C)C1` [arecoline hydrobromide], the solubility in ethanol [2] is listed as “diffluent” and the solubility in water [2] is listed as “diffluent”.
In the case of `O=C1C=CC2(CCC23C=CC(=O)O3)O1` (stereo not shown) [Anemonin], the “solubility in cold water” value ([2]; cold water) is listed as “slightly soluble”, the “solubility in hot/boiling ethanol” value [2] is listed as “soluble” and the “solubility in hot/boiling water” value [2] is listed as “soluble”.
For `O=C(O)[C@H]1O[C@@H](Oc2cc3oc(-c4ccccc4)cc(=O)c3c(O)c2O)[C@H](O)[C@@H](O)[C@@H]1O` [Baicalin], the “solubility in N,N-dimethylformamide” value ([2]; N,N-dimethylformamide) is given as “diffluent”, the “solubility in alkaline solution” value ([2]; alkaline solution, such as sodium bicarbonate, sodium carbonate, sodium hydroxide) is given as “soluble” and the solubility in water [2] is given as “almost insoluble”. The “stability in alkaline environment” value [3] was “unstable”.
For `Cc1ncc([N+](=O)[O-])n1CCO` [Metronidazole, 2-methyl-5-nitroimidazole-1-ethanol], the “MICMet (alone)” value ([4]; Replicate 1) was 1, the “MICMet (combine)” value ([4]; Replicate 1, pair 128, 0.5) was 0.5 and the “MICMet (combine)” value ([4]; Replicate 1, pair 256, 0.25) was 0.25. The “MICMet (combine)” value ([4]; Replicate 1, pair 256, 0.5) was 0.5, the “MICMet (alone)” value ([4]; Replicate 2) was 2 and the “MICMet (combine)” value ([4]; Replicate 2, pair 128, 0.5) was 0.5. The “MICMet (combine)” value ([4]; Replicate 2, pair 256, 0.25) was 0.25, the “MICMet (combine)” value ([4]; Replicate 2, pair 256, 0.5) was 0.5 and the “mice survived to the end of the experiment (day 4)” value ([5]; Metronidazole (50 mg/kg) group) was 1/5. The “survival compared to untreated mice” value ([5]; either 25 mg/kg or 50 mg/kg) was “no statistical difference in survival”, the “survival D0” value ([5]; single agent 25 mg/kg) was 100% and the “survival D1” value ([5]; single agent 25 mg/kg) was 60%. The “survival D1½” value ([5]; single agent 25 mg/kg) was 20%, the “survival D1¾” value ([5]; single agent 25 mg/kg) was 20% and the “survival D2” value ([5]; single agent 25 mg/kg) was 0%. The “survival D3” value ([5]; single agent 25 mg/kg) was 0%, the “survival D4” value ([5]; single agent 25 mg/kg) was 0% and the “survival D1” value ([5]; single agent 50 mg/kg) was 100%. The “survival D1½” value ([5]; single agent 50 mg/kg) was 100%, the “survival D1¾” value ([5]; single agent 50 mg/kg) was 100% and the “survival D2” value ([5]; single agent 50 mg/kg) was 20%. The “survival D3” value ([5]; single agent 50 mg/kg) was 20%, the “survival D4” value ([5]; single agent 50 mg/kg) was 20% and the “survival D0” value [5, 6] was 100%.
With `COc1ccc2cc3[n+](cc2c1OC)CCc1cc2c(cc1-3)OCO2` [Berb] the “MICBerb (alone)” value ([4]; Replicate 1) was 1024, the “MICBerb (combine)” value ([4]; Replicate 1, pair 128, 0.5) was 128 and the “MICBerb (alone)” value ([4]; Replicate 2) was 512. The “MICBerb (combine)” value ([4]; Replicate 2, pair 128, 0.5) was 128, the “survival time of mice” value ([5]; either 25 mg/kg or 50 mg/kg) was “did not increase the survival time” and the “survival D0” value ([5]; single agent 25 mg/kg) was 100%. For the same compound, the “survival D1” value ([5]; single agent 25 mg/kg) was 0%, the “survival D1½” value ([5]; single agent 25 mg/kg) was 0% and the “survival D1¾” value ([5]; single agent 25 mg/kg) was 0%. The “survival D2” value ([5]; single agent 25 mg/kg) was 0%, the “survival D3” value ([5]; single agent 25 mg/kg) was 0% and the “survival D4” value ([5]; single agent 25 mg/kg) was 0%. The “survival D1” value ([5]; single agent 50 mg/kg) was 20%, the “survival D1½” value ([5]; single agent 50 mg/kg) was 0% and the “survival D1¾” value ([5]; single agent 50 mg/kg) was 0%. For the same compound, the “survival D2” value ([5]; single agent 50 mg/kg) was 0%, the “survival D3” value ([5]; single agent 50 mg/kg) was 0% and the “survival D4” value ([5]; single agent 50 mg/kg) was 0%. The “survival D0” value [5, 6] was 100%.
For `COc1cc2c(cc1OC)-c1cc3ccc(OC)c(OC)c3c[n+]1CC2` [Palmatine chloride], the solubility in ethanol [2] is listed as “slightly soluble”, the “solubility in hot/boiling water” value [2] is listed as “soluble” and the solubility in water [2] is listed as “sparingly soluble”.
